The results in this text go back to patent publication US12037305B2, “Calcium salt polymorphs as anti-inflammatory, immunomodulatory and anti-proliferative agents” (Immunic AG, priority 2018, dated 2024).

By IC50 is commonly meant the concentration that gives 50% inhibition.

One series has as its system Human T-Cells. Kind of series: Proliferation assay of human T-cells (PHA-stimulated PBMC, BrdU ELISA). The format is cell-based. The note with it: T-cell, PHA 20 μg/ml, 48 hours. As for the experimental part:
Human peripheral blood mononuclear cells (PBMC) were obtained from healthy volunteers and transferred to RPMI1640 cell culture medium containing 10% dialyzed fetal calf serum. 80.000 cells per well were pipetted into a 96-well plate and phytohemagglutinin (PHA) was added in phosphate buffered saline to a final concentration of 20 μg/ml to stimulate T-cell proliferation. Vidofludimus was added in dimethyl sulfoxide (DMSO, final concentration: 0.1 Vol %) to final concentrations ranging from 20 nM to 50 μM. After incubation for 48 hours, cell proliferation was quantified using the “cell proliferation ELISA BrdU” (Roche) according to the manufacturer's instructions. Half maximal inhibition (IC50) was calculated using a 4-parameter sigmoidal curve fit.
(In general: Dividing cells build labelled thymidine or BrdU into new DNA.)

A short description of series [1]: Dynamic vapor sorption (DVS). The format is physicochemical. From the text: DVS (SMS): Surface Measurement Systems Ltd. DVS-1 water vapour sorption analyzer. The sample is placed on a platinum sample pan and allowed to equilibrate at a given relative humidity (r.h.), usually 50% r.h. Then, a pre-defined humidity program was started with a scanning rate of 5% r.h. change per hour. First step: from 50% r.h. to 0% r.h. (in case of a possibly hydrate as starting material 50 to 95% r.h.), second step: from 0% to 95% r.h. (in case of a possibly hydrate as starting material 95 to 0% r.h.)

Where a name gives a salt, the structure may show the parent alone.

With `COc1cccc(-c2ccc(NC(=O)C3=C(C(=O)O)CCC3)c(F)c2)c1` [Vidofludimus, 2-(3-Fluoro-3′-methoxy-biphenyl-4-ylcarbamoyl)-cyclopent-1-enecarboxylic acid], 4.1 µM corresponded to half-maximal inhibition in the series on Human T-Cells (IC50). On to `COc1cccc(-c2ccc(NC(=O)C3=C(C(=O)O)CCC3)c(F)c2)c1` [Calcium salt], for which the water uptake was found to be 0.4% in series [1] (at 95% r.h. (not reversible)) and 0.3% in series [1] (at about 85% r.h., after desolvation).
